# Laboratory results taken from patent publication US9687480B2, “Chiral 1-(4-methylphenylmethyl)-5-oxo-{N-[(3-t-butoxycarbonyl-aminomethyl)]-piperidin-1-yl)-pyrrolidine as inhibitors of collagen induced platelet activation and adhesion” (Council of Scientific & Industrial Research, priority 2011, dated 2017).
# Tests used:
# rats = assay: FeCl3 induced carotid artery thrombosis in rats; assay type: in vivo; details: for time to occlude the carotid artery (TTO): compound 1 at the same dose as compound 6, aspirin at a very high dose
# Description: Male SD rats were anesthetized by urethane (1.25 g/kg, i.p.). The carotid artery was carefully dissected and a pulsed Doppler Probe (DBF-120A-CPx, CBI-8000, Crystal Biotech, USA) was placed around it to record the blood flow velocity and patency of the blood vessels. The carotid artery thrombosis was induced by FeCl3 as follows: a square (1×1 mm) of Whatman Chromatography paper was immersed in 20% FeCl3 solution for 5 min and placed on the carotid artery as described earlier (Kurz K D, Main B W, Sandusky G E. Rat model of arterial thrombosis induced by ferric chloride. Thromb Res 1990; 60(4):269-80). Thrombosis was monitored as the reduction in carotid artery blood flow. The time at which the blood-flow velocity was decreased to zero was recorded as the total of occlusion (TTO) of the carotid artery. […] (Ferric Chloride induced thrombosis (FIG. 7))
# [1] = tested on: mice platelet rich plasma; assay: Platelet aggregation (mice, ex vivo) induced by collagen; assay type: in vivo; details: oral route
# Description: (§1) The reaction was allowed to proceed for at least 5 min, and the extent of aggregation was expressed in light-transmission units (Ivandic B T, Schlick P, Starltz P, Kurz K, Katas H A, Giannitsis E. Determination of clopidogrel resistance by whole blood platelet aggregometry and inhibitors of the P2Y12 receptor. Clinical Chemistry 2006: 52:383-88).
# hyperlipidemic hamsters = assay: Arterio-venous shunt model in hyperlipidemic hamsters; assay type: in vivo
# [2] = tested on: human platelet rich plasma (Convulxin, GP VI agonist); assay: Convulxin induced platelet aggregation, human platelet rich plasma (in vitro); assay type: cell-based; details: at 500 μM
# Description: as §1
# The percentage of aggregation was calculated by using following formula: Percent Aggregation=A/B×100 Where, A is the number of division traversed by the label on chart in the presence of Inducer & B is the total number of divisions (80). Platelet Aggregation Studies (FIG. 3) a) Platelet Aggregation (Human, In Vitro) (FIG. 3a (i) (ii) (iii))
# [3] = tested on: collagen stimulated platelets; assay: Immunoblotting: tyrosine phosphorylation of platelet proteins after collagen stimulation; assay type: cell-based, human; details: 10-100 μM
# Description: Platelet rich plasma (2×10^8/ml) was pre-incubated with test compound (10-100 μM) or the isovolumetric solvent control (0.5% DMSO) for 5 minutes, followed by the addition of collagen, to trigger platelet activation. The reaction was stopped by the addition of ice cold stop buffer (5 mM EDTA, 5 mM EGTA) and the suspensions were centrifuged at 800×g for 10 minutes and then immediately resuspended in 300 μl of lysis buffer (50 mM HEPES, 5 mM EDTA, 50 mM NaCl, 1% Triton X-100, 10 μg/ml aprotinin, 1 mM PMSF, 10 μg/ml leupeptin, 10 mM NaF, 1 mM sodium orthovanadate, and 5 mM sodium pyrophosphate) (Ezumi Y. Shindoh K, Tsuji M, and Takayama H Physical and Functional Association of the Src Family Kinases Fyn and Lyn with the Collagen Receptor Glycoprotein VI-Fc Receptorg Chain Complex on Human Platelets. J. Exp. Med. 1998; 188: 287-[…]). Lysates were centrifuged at 12,000×g for 5 minutes, after which the supernatants were dissolved in Laemmeli sample buffer (Laemmeli, 1970). […] Immunoreactive bands were detected by chemiluminescence using the ECL-enhanced chemiluminescence system (Inoue K, Ozaki Y, Satoh K, u Y, Yatomi Y, Shin Y and Morita T Signal Transduction Pathways Mediated by Glycoprotein Ia/IIa in Human Platelets: Comparison with those of Glycoprotein VI. Biochem. I and Biophys. Res. Comm. 1999; 256: 114-120).
# human platelets = assay: Intracellular calcium mobilization in Fura-2 loaded platelets stimulated by collagen; assay type: cell-based; details: Fura-2 loaded human platelets, collagen 5 μg/ml
# Description: Ca^+2 concentration ([Ca^+2]i) were monitored by Fura-2AM fluorescence in the platelets (Fowler C J. Tiger G Calibration of Fura-2 signals introduces errors into measurement of thrombin-stimulated calcium mobilization in human platelets. Clinica Chimica Acta. 1997; 265:247-261). Human PRP was incubated with 5 μM Fura-2 AM (Sigma) for 60 minutes at 37° C. After 2 washes with the wash buffer, the platelets were resuspended at 2×10^6 cells/mL with the Tyrode's-HEPES buffer. After incubating with various concentrations of compound for 5 minutes, the platelets were stimulated with collagen (5 μg/mL)(the concentration of collagen was varied in accordance with cell number). The Fura-2 fluorescence was measured for 5 minutes at an excitation wavelength of 340/380 nm and emission wavelength of 500 nm (Yoshida S., Sudo T., Niimi M., Tao L., Sun B., Kambayashi J., Watanabe H., Luo E., and Matsuoka H. Inhibition of collagen-induced platelet aggregation by anopheline antiplatelet protein, a saliva protein from a malaria vector mosquito. Blood 2007; 111: 2007-201) using a fluorescence spectrophotometer (VARIAN, Cary Eclipse).
# mouse platelets = assay: Platelet adhesion over collagen matrix (mice, ex vivo); assay type: in vivo; details: oral route, compound 6 10, 30, 100 μM/kg, aspirin 100 μM/kg
# Excerpt: FIG. 4b: Adhesion of mouse platelets on collagen matrix as observed under fluorescence microscope 40× (ex vivo method). Different pictures show the different treatment performed. Washed murine platelets (2×10^6/ml) were obtained from animals pretreated with the compound (compound 6) (different doses) and seeded on BSA or Collagen (fibrillar) coated cover slips (A, B). Platelets from untreated animals were allowed to adhere on uncoated and BSA coated cover slip respectively to delineate the possibility of non specific binding. C, D. control platelets were adhered on collagen coated cover slip (control). E. F&G. Platelets obtained from animals pre-treated with compound 6 (10 μM/kg, 30 μM/kg & 100 μM/kg) respectively were adhered on collagen coated cover slip. H, I. Platelets from Aspirin (100 μM/kg) & Clopidogrel treated (100 μM/kg) animals resp. (standard Drugs) and adhered on collagen coated cover slip (n=5, 5 animals/group/experiment).
structure (smiles),measurement,setting,value
"Cc1ccc(CN2C(=O)CC[C@H]2C(=O)N2CCCC(CNC(=O)OC(C)(C)C)C2)cc1 (some centres unmarked) [Compound 1, 1-(4-methylphenylmethyl)-5-oxo-{N-[(3-t-butoxycarbonyl-aminomethyl)]-piperidin-1-yl}-pyrrolidine-2-carboxamides]",time to occlude the carotid artery (TTO),rats; rats,failed to exhibit any protection
Cc1ccc(CN2C(=O)CC[C@H]2C(=O)N2CCC[C@@H](CNC(=O)OC(C)(C)C)C2)cc1 [Compound 6],collagen induced platelet aggregation (ex vivo),[1],dose dependent inhibition
same,Arterio-venous shunt model in hyperlipidemic hamsters,"hyperlipidemic hamsters; Table 2 summary, Even at 10 μM",Protective
same,thrombus weight,"hyperlipidemic hamsters; hyperlipidemic hamsters, compound 6 at 10 μM/kg",significantly reduced the thrombus weight
same,inhibition of convulxin induced platelet aggregation,[2],does not significantly inhibit
same,tyrosine phosphorylation of platelet proteins,[3],attenuated the tyrosine phosphorylation
same,calcium mobilization ([Ca2+]i) during collagen stimulation,human platelets,concentration dependent inhibition
same,Ferric chloride induced thrombosis in rats,rats; Table 2 summary,Protective
same,"time to occlusion, dose dependence","rats; rats, 10, 30 & 100 μM/kg",dose dependently exhibited prolongation in time to occlusion
same,time to occlude the carotid artery (TTO),rats; rats,significantly prolonged
same,platelet adhesion (ex vivo) over collagen surface,mouse platelets,dose dependent inhibition
